Structures can show the parent of a compound that is named as a salt. Where two headings read alike, the source gives them in different places.
Legend:
[1] = system: H5N1 IAV (A/Duck/Guangdong/99); assay: microbe, parasite or virus in culture; type: cell-based, influenza A virus
[2] = system: A549 cells; assay: MTT cytotoxicity assay; conditions: for CC50: MTT, 24 h of compound treatment
[3] = system: H5N1 IAV; type: cell-based, influenza A virus
[4] = system: H3N2 IAV (A/Guangdong/Dongguan/1100/2006); assay: microbe, parasite or virus in culture; type: cell-based; conditions: Influenza A virus, H3N2, A549
[5] = target: Recombinant influenza HA protein from A/Vietnam/1203/2004 (H5N1) (Influenza A virus (A/Vietnam/1203/2004(H5N1)), UniProt Q5EP31); assay: biochemical; type: binding
[6] = system: H9N2 IAV (A/Chicken/Guangdong/16/1996); assay: microbe, parasite or virus in culture; type: cell-based; conditions: Influenza A virus, H9N2, A549, in Gallus gallus
[7] = system: PR8 (H1N1) IAV (A/Puerto Rico/8/34); assay: microbe, parasite or virus in culture; type: cell-based; conditions: Influenza A virus, A549
[8] = system: H5N1 IAV; type: cell-based, influenza A virus; remark: listed apart in the source
[9] = system: H5N1 IAV HA-induced hemolysis; assay: microbe, parasite or virus in culture; type: cell-based; conditions: Influenza A virus, H5N1, in Gallus gallus, pH 5.2, read-out: IC50 hemolysis inhibition
[10] = system: A/Duck/Guangdong/99(H5N1) HA; type: cell-based, influenza A virus
[11] = target: FKBP12 (FK506 binding protein 1A, 12 kDa) (Homo sapiens, UniProt P62942)
[12] = system: IAV (H1N1, H5N1, H9N2 and H3N2); assay: microbe, parasite or virus in culture; type: cell-based, influenza A virus
[13] = system: H5N1 IAV; type: cell-based, influenza A virus; remark: listed apart in the source
[14] = system: H5N1 IAV; type: cell-based, influenza A virus; remark: listed apart in the source

Chain of FKBP12 (FK506 binding protein 1A, 12 kDa) (P62942 whole entry): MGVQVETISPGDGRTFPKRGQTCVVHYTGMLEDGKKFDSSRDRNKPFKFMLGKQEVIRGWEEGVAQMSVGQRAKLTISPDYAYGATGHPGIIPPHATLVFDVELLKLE

## CC1(C)CC[C@]2(C(=O)O)CC[C@]3(C)C(=CC[C@@H]4[C@@]5(C)CC[C@H](O)C(C)(C)[C@@H]5CC[C@]43C)[C@@H]2C1 [OA-0, oleanolic acid]
[1]
  EC50: 14.2 ± 1.9 µM
  SI (selectivity index), ratio of CC50 to EC50: 4.7
[1]; Influenza A virus, H5N1, A549
  EC50: ≤ 14.2 µM
[2]
  CC50: 67.4 ± 4.8 µM
[2]; listed as oleanolic acid
  CC50: ≥ 31.1 µM

## CNC(=O)[C@]12CCC(C)(C)C[C@H]1C1=CC[C@@H]3[C@@]4(C)CC[C@H](O[C@@H]5O[C@H](CO)[C@@H](O[C@@H]6O[C@@H](C)[C@H](O)[C@@H](O)[C@H]6O)[C@H](O)[C@H]5O[C@@H]5O[C@@H](C)[C@H](O)[C@@H](O)[C@H]5O)C(C)(C)[C@@H]4CC[C@@]3(C)[C@]1(C)CC2 [OA-10]
[3]
  effect on IAV infection after co-incubation at 4 °C (virus binding): did not affect IAV infection
[4]
  EC50: 19.6 ± 3.7 µM
[5]
  Kd: 2.98 pM
[1]
  SI (selectivity index), ratio of CC50 to EC50: >45
[1]; Influenza A virus, H5N1, A549
  EC50: 14 ± 2.3 µM
[6]
  EC50: 15.3 ± 2.5 µM
[7]
  EC50: 6.7 ± 1.4 µM
[8]
  effect of combination on progeny virus titer and NP production: synergistic effect
  progeny virus yield and NP protein expression, co-treatment: mild but significant reduction
  progeny virus yield and viral NP production, pre-treatment: did not reduce progeny virus yield and viral NP production
  progeny virus yield, post-treatment: one log reduction
[9]
  IC50: 26 µM
[10]
  inhibition of HA adsorption to chicken RBCs: did not inhibit HA adsorption to chicken RBCs
[10]; concentrations ≥40 µM
  inhibition of H5N1 virus adsorption to chicken RBCs: partially blocked
[11]
  interaction with negative control protein: did not interact
[12]
  progeny virus titer on PR8, H9N2 and H3N2 infection: reduced progeny virus titer
[12]; Influenza A virus, H1N1|H3N2|H5N1|H9N2, A549, read-out: EC50 range across IAV subtypes
  EC50: 6.7 to 19.6 µM
[2]; after 24, 48 or 72 h of treatment
  cytotoxicity at concentrations ≤ 80 µM: No obvious cytotoxicity
[13]
  H5N1 IAV NP RNA levels: significantly inhibited
  reduction in progeny virus production: 1.8 log

## CCOC(=O)c1c(CSc2ccccc2)n(C)c2cc(Br)c(O)c(CN(C)C)c12 [arbidol, Arbidol hydrochloride, reference compound]
[9]
  IC50: 51 µM

## CCC(CC)[C@H](NC(C)=O)[C@@H]1[C@H](O)[C@@H](C(=O)O)C[C@H]1N=C(N)N [peramivir, Peramivir, reference compound]
[8]
  progeny virus yield and NP protein expression, co-treatment: more significant inhibition
  progeny virus yield, post-treatment: more significant inhibition
[13]
  inhibition on IAV infections (positive control): significant inhibition

## NC(=O)c1ncn([C@@H]2O[C@H](CO)[C@@H](O)[C@H]2O)n1 [ribavirin, Ribavirin hydrochloride, reference compound]
[8]
  progeny virus yield, post-treatment: inhibition only in the post-treatment mode
[14]
  inhibition of viral replication, compound added after 4 hpi: no inhibition

From paper PMC7077228 (Viruses, 2020)
